Earlier results, collected in patent US6380174B1, “Slime-removing composition for paper manufacture and method of controlling slime using the same” (SK Corporation, priority 1999, dated 2002).

System: slime-causing microorganisms

N#CC(Br)(Br)C(N)=O [DBNPA, 2,2-dibromo-3-nitrilepropionamide]
amount required for early sterilization (after 3 hours): 50 ppm
amount necessary for sufficient sterilizing activity (after 24 hours): 5 ppm
